Experimental findings from ChEMBL document CHEMBL1134069 (Bioorg Med Chem Lett, 2001) are described below.

The IC50 is the midpoint of a concentration-inhibition curve. Read a low IC50 as inhibition by little substance.

One experiment deals with T1, Deoxynucleoside kinase (Drosophila melanogaster, UniProt Q9XZT6).
T1 sequence (Q9XZT6 whole entry): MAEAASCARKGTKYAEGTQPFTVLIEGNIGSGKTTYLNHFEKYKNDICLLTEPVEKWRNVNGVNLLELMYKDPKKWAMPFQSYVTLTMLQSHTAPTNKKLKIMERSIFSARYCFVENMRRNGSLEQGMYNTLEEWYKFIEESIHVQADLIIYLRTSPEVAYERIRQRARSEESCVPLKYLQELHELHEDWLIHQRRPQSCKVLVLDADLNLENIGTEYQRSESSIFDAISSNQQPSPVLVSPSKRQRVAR
The experiment is described as follows: Inhibitory concentration against Drosophila melanogaster deoxyribonucleoside kinase (Dm-dNK).

Experiment [1] has as its target T2, Thymidine kinase (Human herpesvirus 1 (strain SC16) (HHV-1) (Human herpes simplex virus1), UniProt P06479).
T2 sequence (P06479 whole entry): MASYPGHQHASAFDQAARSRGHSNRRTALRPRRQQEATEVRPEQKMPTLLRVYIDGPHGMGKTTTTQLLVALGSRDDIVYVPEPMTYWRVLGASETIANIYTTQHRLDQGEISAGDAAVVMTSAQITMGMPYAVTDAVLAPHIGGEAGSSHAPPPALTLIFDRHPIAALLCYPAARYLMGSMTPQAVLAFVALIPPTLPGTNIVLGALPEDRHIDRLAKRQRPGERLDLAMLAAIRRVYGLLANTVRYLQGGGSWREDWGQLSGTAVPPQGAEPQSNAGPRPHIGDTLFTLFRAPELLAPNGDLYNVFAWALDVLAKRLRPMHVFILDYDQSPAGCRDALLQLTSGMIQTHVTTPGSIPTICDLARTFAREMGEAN
As to the kind of experiment: Inhibitory concentration against Herpes simplex virus type 1 thymidine kinase(HSV-1 TK). On the set-up: species or system Herpes simplex virus (type 1 / strain SC16).

Experiment [2] addresses T3, Thymidine kinase 2, mitochondrial (Homo sapiens, UniProt O00142).
T3 sequence (O00142 whole entry): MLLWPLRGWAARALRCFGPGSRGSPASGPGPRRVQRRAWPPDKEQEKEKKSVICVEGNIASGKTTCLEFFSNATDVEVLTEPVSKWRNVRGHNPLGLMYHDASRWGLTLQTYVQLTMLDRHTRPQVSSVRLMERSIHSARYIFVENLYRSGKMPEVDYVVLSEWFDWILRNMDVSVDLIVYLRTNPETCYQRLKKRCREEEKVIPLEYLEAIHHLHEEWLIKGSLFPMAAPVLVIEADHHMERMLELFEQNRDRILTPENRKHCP
The experiment is described as follows: Inhibitory concentration against mitochondrial thymidine kinase (TK-2).

For experiment [3], the target named is T4, Thymidine kinase (Varicella-zoster virus (strain Dumas) (HHV-3) (Human herpesvirus 3), UniProt P09250).
T4 sequence (P09250 whole entry): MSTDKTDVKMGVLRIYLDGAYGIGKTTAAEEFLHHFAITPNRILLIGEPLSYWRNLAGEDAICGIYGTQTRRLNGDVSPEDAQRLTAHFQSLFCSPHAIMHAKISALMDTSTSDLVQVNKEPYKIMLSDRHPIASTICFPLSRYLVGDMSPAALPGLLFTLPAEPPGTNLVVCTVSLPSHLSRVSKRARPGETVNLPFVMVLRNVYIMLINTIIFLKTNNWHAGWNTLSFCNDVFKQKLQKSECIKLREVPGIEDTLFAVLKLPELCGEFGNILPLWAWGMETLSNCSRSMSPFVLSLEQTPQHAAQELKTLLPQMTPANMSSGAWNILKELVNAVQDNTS
The experiment is described as follows: Inhibitory concentration against Varicella- zoster virus thymidine kinase(VZV TK). Set-up: species or system Human alphaherpesvirus 3.

In experiment [4] the target is T5, Thymidine kinase, cytosolic (Homo sapiens, UniProt P04183).
T5 sequence (P04183 whole entry): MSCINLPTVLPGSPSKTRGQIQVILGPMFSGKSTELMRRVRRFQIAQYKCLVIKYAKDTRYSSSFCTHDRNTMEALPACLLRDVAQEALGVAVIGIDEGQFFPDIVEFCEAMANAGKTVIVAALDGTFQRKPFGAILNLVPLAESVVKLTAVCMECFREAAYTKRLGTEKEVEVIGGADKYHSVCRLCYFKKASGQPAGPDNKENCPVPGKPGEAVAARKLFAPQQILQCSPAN
The experiment is described as follows: Inhibitory concentration against cytosolic thymidine kinase (TK-1).

In the case of `Cc1cn([C@@H]2O[C@H](CO)[C@@H](O)[C@H]2OCc2ccccc2)c(=O)[nH]c1=O`, the IC50 at Deoxynucleoside kinase was above 1000 µM; on Thymidine kinase [1], above 1000 µM; in experiment [2], 801 µM; against Thymidine kinase [3] it was above 1000 µM; in experiment [4] it was above 1000 µM.

On to `CCCCCCCCO[C@H]1[C@H](O)[C@@H](CO)O[C@H]1n1cc(C)c(=O)[nH]c1=O`, for which the IC50 is above 1000 µM against Deoxynucleoside kinase; above 1000 µM at Thymidine kinase [1]; 120 µM in experiment [2]; above 1000 µM at Thymidine kinase [3]; above 1000 µM in experiment [4].

As for `CCCCCCCCCC(=O)O[C@H]1[C@H](O)[C@@H](CO)O[C@H]1n1cc(C)c(=O)[nH]c1=O`, the IC50 is 872 µM against Deoxynucleoside kinase; above 1000 µM at Thymidine kinase [1]; 27 µM in experiment [2]; above 1000 µM against Thymidine kinase [3]; above 1000 µM in experiment [4].

`Cc1cn([C@@H]2O[C@H](CO)[C@@H](O)[C@@H]2O)c(=O)[nH]c1=O`: the half-inhibitory concentration (IC50) is 65 µM at Deoxynucleoside kinase; 24 µM on Thymidine kinase [1]; 285 µM in experiment [2]; 17 µM against Thymidine kinase [3]; above 1000 µM in experiment [4].

Take `CCCCC(=O)O[C@H]1[C@H](O)[C@@H](CO)O[C@H]1n1cc(C)c(=O)[nH]c1=O`: the IC50 (against Deoxynucleoside kinase; against Thymidine kinase [1]; in experiment [2]; against Thymidine kinase [3]; in experiment [4]) was above 1000 µM in each case.

Regarding `Nc1ccn([C@@H]2O[C@H](CO)[C@@H](O)[C@@H]2O)c(=O)n1` [CYTARABINE], the IC50 (on Thymidine kinase [1]; in experiment [2]; against Thymidine kinase [3]; in experiment [4]) was above 1000 µM throughout.

For the molecule `CCCCCCCCO[C@H]1[C@H](O)[C@@H](CO)O[C@H]1n1ccc(N)nc1=O`, the concentration for half-maximal inhibition (IC50) (on Thymidine kinase [1]; in experiment [2]; at Thymidine kinase [3]; in experiment [4]) was above 1000 µM in each case.

For the molecule `CCCCCCCCCCCC(=O)O[C@H]1[C@H](O)[C@@H](CO)O[C@H]1n1cc(C)c(=O)[nH]c1=O`, the IC50 at Deoxynucleoside kinase was above 1000 µM; on Thymidine kinase [1], above 1000 µM; in experiment [2], 28 µM; on Thymidine kinase [3], above 1000 µM; in experiment [4], above 1000 µM.

Turning to `CCCCCCCC(=O)O[C@H]1[C@H](O)[C@@H](CO)O[C@H]1n1cc(/C=C/Br)c(=O)[nH]c1=O`, the IC50 is 178 µM at Deoxynucleoside kinase; above 1000 µM against Thymidine kinase [1]; 6.3 µM in experiment [2]; 718 µM at Thymidine kinase [3]; above 1000 µM in experiment [4].

Regarding `CCCCCCCCCC(=O)O[C@H]1[C@H](O)[C@@H](CO)O[C@H]1n1cc(/C=C/Br)c(=O)[nH]c1=O`, the IC50 was 163 µM against Deoxynucleoside kinase; above 1000 µM on Thymidine kinase [1]; 6.8 µM in experiment [2]; 845 µM against Thymidine kinase [3]; above 1000 µM in experiment [4].

As to `O=c1[nH]c(=O)n(C2O[C@H](CO)[C@@H](O)[C@@H]2O)cc1/C=C\Br` (some centres not stated), the IC50 is 31.6 µM against Deoxynucleoside kinase; 4.3 µM at Thymidine kinase [1]; 43 µM in experiment [2]; 3.3 µM against Thymidine kinase [3]; above 500 µM in experiment [4].

With `COCC(=O)O[C@H]1[C@H](O)[C@@H](CO)O[C@H]1n1cc(/C=C/Br)c(=O)[nH]c1=O`, the IC50 at Thymidine kinase [1] is 84 µM; in experiment [2] it was 402 µM; on Thymidine kinase [3] it was 35 µM; in experiment [4], above 1000 µM.
